Laboratory results: PMC12608155, “Discovery of Potential Antileishmanial Compounds Through Phenotypic Screening of an Alkaloid Library” (Molecules, 2025)
Like-named read-outs stand apart in the source and are kept apart here.

Test system: L. donovani IRFP axenic amastigotes
Experiment: Primary single-concentration screening on axenic amastigotes, growth inhibition at 72 h
Format: cell-based, Leishmania donovani
Conditions: axenic amastigotes; for Growth Inhibition (%) at 72h, 1 µM_Exp1 / Growth Inhibition (%) at 72h, 1 µM_Exp2 / inhibition at 1 µM: 1 µM; for Growth Inhibition (%) at 72h, 10 µM_Exp1 / Growth Inhibition (%) at 72h, 10 µM_Exp2 / inhibition at 10 µM: 10 µM; for inhibition at 1 µM / inhibition at 10 µM: Leishmania donovani
[1] = experiment 1, 72 h, read-out: Growth Inhibition (%) at 72h, 1 µM_Exp1
[2] = experiment 2, 72 h, read-out: Growth Inhibition (%) at 72h, 1 µM_Exp2
[3] = experiment 1, 72 h, read-out: Growth Inhibition (%) at 72h, 10 µM_Exp1
[4] = experiment 2, 72 h, read-out: Growth Inhibition (%) at 72h, 10 µM_Exp2

Structure (SMILES)	Growth Inhibition (%) at 72h, 1 µM_Exp1 (experiment 1, 72 h) [%]	Growth Inhibition (%) at 72h, 1 µM_Exp2 (experiment 2, 72 h) [%]	Growth Inhibition (%) at 72h, 10 µM_Exp1 (experiment 1, 72 h) [%]	Growth Inhibition (%) at 72h, 10 µM_Exp2 (experiment 2, 72 h) [%]	inhibition at 1 µM [1] [%]	inhibition at 1 µM [2] [%]	inhibition at 10 µM [3] [%]	inhibition at 10 µM [4] [%]
CN1c2ccccc2C(=O)N2CCc3c([nH]c4ccccc34)[C@@H]21 (racemic) [(±)-Evodiamine]	64.72	40.81	100.52	97.39				
c1ccc2c(Cc3[nH]c4ccccc4c3Cc3c[nH]c4ccccc34)c[nH]c2c1 [2,3-Bis(3-indolylmethyl) indole]					-5.15	13.6	101	100
c1ccc2c(Cc3c[nH]c4ccccc34)c[nH]c2c1 [3,3'-Diindolylmethane]					-59.5	-44.6	100	95.7
O=C(O)Cc1c[nH]c2ccccc12 [3-Indoleacetic acid]					-25.4	-9.83	102	101
CCc1c2c(nc3ccccc13)-c1cc3c(c(=O)n1C2)COC(=O)[C@]3(O)CC [7-Ethylcamptothecin]	70.44	77.88	96.57	91.90				
CC[C@@]1(O)C(=O)OCc2c1cc1n(c2=O)Cc2cc3c(N)cccc3nc2-1 [9-Aminocamptothecin]					-3.99	62	74.7	89.1
CC[C@@]1(O)C(=O)OCc2c1cc1n(c2=O)Cc2cc3c(OC)cccc3nc2-1 [9-Methoxycamptothecin]	64.49	73.97	96.02	94.80				
CC[C@@]1(O)C(=O)OCc2c1cc1n(c2=O)Cc2cc3cc(OC)ccc3nc2-1 [10-Methoxycamptothecin]	73.40	85.61	97.42	93.76				
CCc1ccc(O)c2cc3c(nc12)-c1cc2c(c(=O)n1C3)COC(=O)[C@]2(O)CC [12-Ethyl-9-hydroxycamptothecin]	22.17	56.54	70.30	62.49				
CC(C)=CC[C@H](O)C1=CC(=O)c2c(O)ccc(O)c2C1=O [(-)-Alkannin]	100.44	100.08	99.90	99.93				
Br.CN1[C@H]2C[C@H](OC(=O)[C@H](CO)c3ccccc3)C[C@@H]1[C@@H](O)C2 [Anisodamine (hydrobromide)]	-15.73	4.55	80.63	11.58				
COc1ccc2cc3[n+](cc2c1OC)CCc1cc2c(cc1-3)OCO2.O.[Cl-] [Berberine (chloride hydrate)]	29.91	24.54	98.55	99.87				
COc1ccc2cc3[n+](cc2c1OC)CCc1cc2c(cc1-3)OCO2.[Cl-] [Berberine (chloride)]	16.68	6.56	99.29	97.39				
COc1ccc2cc3[n+](cc2c1OC)CCc1cc2c(cc1-3)OCO2.O=S(=O)([O-])O [Berberine (sulfate)]	19.57	-24.39	70.74	94.59				
CC[C@@]1(O)C(=O)OCc2c1cc1n(c2=O)Cc2cc3ccccc3nc2-1 [Camptothecin]					66.4	89.3	91	95.9
CC[C@H]1CN2CCc3cc(OC)c(OC)cc3[C@@H]2C[C@@H]1C[C@H]1NCCc2cc(O)c(OC)cc21.Cl.Cl [Cephaeline (dihydrochloride)]	-15.97	-74.54	96.96	92.99				
O=S(=O)([O-])O.c1c2c(cc3c1OCO3)-c1cc3ccc4c(c3c[n+]1CC2)OCO4 [Coptisine (Sulfate)]	-9.12	-56.10	71.50	83.90				
[Cl-].c1c2c(cc3c1OCO3)-c1cc3ccc4c(c3c[n+]1CC2)OCO4 [Coptisine (chloride)]	29.53	16.08	84.96	96.73				
